# Experimental data from patent US20180201650A1 (BGI SHENZHEN, priority 2014, published 2018).
# Entries after “also recorded” stand apart in the source; their conditions may differ.
# System: HVA calcium channel
# Format: cell-based, rat
sequence,measurement,setting,value
GICCVDDTCTTHSGCL [κ-CPTx-btl05],current after loading (pA),,−62.59 pA
same,current before loading (pA),,−391.32 pA
same,inhibition of HVA calcium channel currents compared with Nifedipine (in words),,inhibitory effect is higher than that of Nifedipine; also recorded: higher inhibition rate on HVA calcium channel currents than Nifedipine
same,inhibition rate (%),10 μM,83.24%
